Experiment [1] has as its target T1, CTNNB1 (Homo sapiens, UniProt P35222).
T1 construct: endogenous in cells; host or cells: HEK293T, HT29, COLO-201, SW480
T1 sequence (P35222 1-781): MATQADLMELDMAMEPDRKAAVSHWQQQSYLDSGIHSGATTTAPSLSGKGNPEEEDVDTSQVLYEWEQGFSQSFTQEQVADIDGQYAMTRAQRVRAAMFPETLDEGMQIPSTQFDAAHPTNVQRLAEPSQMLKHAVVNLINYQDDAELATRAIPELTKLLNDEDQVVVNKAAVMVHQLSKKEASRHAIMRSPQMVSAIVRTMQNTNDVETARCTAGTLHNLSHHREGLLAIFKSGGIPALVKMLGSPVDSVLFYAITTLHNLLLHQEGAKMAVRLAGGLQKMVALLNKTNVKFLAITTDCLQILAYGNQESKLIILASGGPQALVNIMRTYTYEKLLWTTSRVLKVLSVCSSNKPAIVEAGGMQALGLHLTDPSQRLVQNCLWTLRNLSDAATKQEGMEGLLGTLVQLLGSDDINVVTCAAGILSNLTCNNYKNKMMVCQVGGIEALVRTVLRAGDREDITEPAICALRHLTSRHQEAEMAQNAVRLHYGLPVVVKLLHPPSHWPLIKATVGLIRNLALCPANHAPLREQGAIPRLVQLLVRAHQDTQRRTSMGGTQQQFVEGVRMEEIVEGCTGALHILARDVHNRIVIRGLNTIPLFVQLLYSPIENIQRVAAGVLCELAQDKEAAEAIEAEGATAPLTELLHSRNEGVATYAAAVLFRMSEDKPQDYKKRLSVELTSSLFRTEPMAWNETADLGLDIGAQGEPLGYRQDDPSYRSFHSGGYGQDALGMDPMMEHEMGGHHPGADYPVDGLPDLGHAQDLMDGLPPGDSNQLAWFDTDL
Kind of experiment: Cellular thermal shift assay. The experiment is classed as cell-based. To be noted: cellular treatment.

For experiment [2], the system named is FLAG-tagged wild-type, C439S, C466S, C520S, or C619S mutant CTNNB1. Kind of experiment: Degradation of FLAG-tagged wild-type or cysteine-to-serine mutant CTNNB1 in cells. The experiment is classed as cell-based. The settings on record: FLAG-tagged CTNNB1 wild-type vs C439S. The text has this: We next sought to confirm the contributions of the cysteines targeted by EN83 in CTNNB1 to CTNNB1 degradation.

Experiment [3] deals with T2, pure human CTNNB1 protein (Homo sapiens, UniProt P35222).
T2 sequence (P35222 1-781): T1 sequence (P35222 1-781)
Kind of experiment: Gel-based ABPP with CTNNB1 pure protein (IA-Rhodamine displacement). The experiment is classed as binding. To be noted: displacement of cysteine-reactive fluorescent probe. As to the method:
CTNNB1 pure protein (0.1 μg/25 μL in PBS) was treated with either DMSO vehicle or covalent ligand at 37° C. for 30 min, and subsequently treated with 0.1 μM IA-Rhodamine (Setareh Biotech) for 1 h at RT in the dark. The reaction was stopped by addition of 4×reducing Laemmli SDS sample loading buffer (Alfa Aesar). After boiling at 95° C. for 5 min, the samples were separated on precast 4-20% Criterion TGX gels (Bio-Rad) and were analyzed by in-gel fluorescence using a ChemiDoc MP (Bio-Rad).

Experiment [4] deals with T3, CTNNB1 with a N-terminal HiBiT tag (Homo sapiens, UniProt P35222).
T3 construct: N-terminal HiBiT tag incorporated into the endogenous loci of CTNNB1; host or cells: HEK293 (CTNNB1 HiBiT knock-in line)
T3 sequence (P35222 1-781): T1 sequence (P35222 1-781)
Kind of experiment: CTNNB1 HiBiT cell line assay (Nano-Glo HiBiT lytic detection). The experiment is classed as cell-based. The settings on record: HEK293 cells expressing endogenous N-terminal HiBiT-tagged CTNNB1. The protocol: To identify a covalent degrader of CTNNB1, we screened a library of 2100 cysteine-reactive covalent ligands consisting of acrylamides and chloroacetamides in HEK293 cells expressing CTNNB1 with a N-terminal HiBiT tag incorporated into the endogenous loci of CTNNB1. We identified 17 hits lowered CTNNB1 levels.
Covalent ligand screen and dose responses were conducted using Promega Nano-Glo HiBiT Lytic Detection System (N3040) and CellTiter-Glo 2.0 Assay (G9242). HiBiT cells were seeded into 96-well plates (Corning 3917) at 35,000 cells per 100 μL of media and were left overnight to adhere. Cells were treated with 25 μL of media containing 1:125 dilution from a 1000×DMSO compound stock and treated for either 6 hrs, 12 hrs, or 24 hrs. […] 125 μL of CTG or Lytic detection system reagents were added to each well. To assess the cells in the supernatant, half of the plates had the media removed prior to the addition of CTG or lytic detection system reagents. Plates were rocked for 15 minutes prior to their luminescence readout on the Tecan Spark Plate reader (30086376).

Experiment [5] concerns the target T4, proteome-wide cysteine-reactivity (C619 on CTNNB1) (Homo sapiens, UniProt P35222).
T4 construct: endogenous in cells
T4 sequence (P35222 1-781): T1 sequence (P35222 1-781)
Kind of experiment: isoDTB-ABPP, proteome-wide cysteine-reactivity in cells. The experiment is classed as cell-based. The text has this:
We next wanted to confirm that EN83 engages CTNNB1 in cells. […] We next performed a mass spectrometry-based ABPP or isodesthiobiotin-ABPP (isoDTB-ABPP) to map overall proteome-wide cysteine-reactivity of EN83 in cells using previously established methods. […] Among the off-targets of EN83, none of the targets were within the Wnt signaling pathway, including AXIN1, BTRC, or GSK3A or GSK3B.

The target in experiment [6] is T1, CTNNB1. Kind of experiment: Western blotting of CTNNB1 in cells. To be noted: proteasome dependence. The experiment is classed as cell-based. As to the method:
Pelleted cells are lysed with CST buffer containing protease inhibitor cocktail (Pierce A32955). Samples were centrifuged at 20,000 g for 20 min at 4° C. to remove cell debris. Samples' protein content was normalized to run 30 μg per well. Samples were then boiled for 8 min at 90° C. after addition of 4×reducing Laemmli SDS sample loading buffer (Alfa Aesar) and ran on precast 4-20% Criterion TGX gels (Bio-Rad).
Antibodies to CTNNB1 (Cell Signaling Technology, 8814S), GAPDH (Proteintech Group Inc., 60004-1-Ig or Cell Signaling Technology, 14C10), and DDDDK tag (Abcam, ab205606) were diluted per recommended manufacturers' procedures. Proteins were resolved by SDS/PAGE and transferred to nitrocellulose membranes using the BioRad system (1704271 and 1704150). Blots were blocked with 5% BSA in Tris-buffered saline containing Tween 20 (TBST) solution for 1 hour at room temperature, washed in TBST, and probed with primary antibody diluted in recommended diluent per manufacturer overnight at 4° C. Following washes with TBST, the blots were incubated in the dark with secondary antibodies purchased from Ly-Cor and used at 1:10,000 dilution in 5% BSA in TBST at room temperature. Blots were visualized using an Odyssey Li-Cor scanner after additional washes. If additional primary antibody incubations were required the membrane was stripped using ReBlot Plus Strong Antibody Stripping Solution (EMD Millipore, 2504), washed and blocked again before being reincubated with primary antibody.

For another experiment, the target named is T5, CTNNB1 pure protein (Homo sapiens, UniProt P35222).
T5 sequence (P35222 1-781): T1 sequence (P35222 1-781)
Kind of experiment: NF686 probe labeling on CTNNB1 pure protein. The settings on record: alkyne probe, click to fluorescent azide, in-gel fluorescence. It counts as binding. The protocol: CTNNB1 pure protein (0.2 μg/50 μL in PBS) was treated with either DMSO vehicle or NF686 at 37° C. for 30 min. Click reagents Azide-Fluor 545 (Click Chemistry Tools, Inc. AZ109-5), Copper (II) Sulfate, and TBTA (TCI Chemicals, T2993) were added to have a final concentration of 21.8 μM, 873.4 μM, and 47.2 μg/mL, respectively, for 1 hr at RT in the dark. The reaction was stopped by addition of 4×reducing Laemmli SDS sample loading buffer (Alfa Aesar). After boiling samples at 95° C. for 5 min, the samples were separated on precast 4-20% Criterion TGX gels (Bio-Rad). Probe-labeled proteins were analyzed by in-gel fluorescence using a ChemiDoc MP (Bio-Rad).

In experiment [7] the target is T1, CTNNB1. Kind of experiment: Alkyne probe enrichment of CTNNB1 from cells. It counts as cell-based. The settings on record: in cells; GAPDH as unrelated target.

Take `COc1ccc(OC)c(C2CCCN2C(=O)CCl)c1` (racemic) [EN83]: the “thermal stability of CTNNB1 in cells” value on CTNNB1 [1] is listed as “significant thermal destabilization of CTNNB1 in cells”. Further, the “effect of cysteine mutation on CTNNB1 degradation” value in experiment [2] is on record as “mutation of C466, C520, or C619, but not C439, to serines significantly attenuated CTNNB1 degradation in cells”. Also, the “binding to CTNNB1 by gel-based ABPP” value in experiment [3] was “dose-responsively displaced cysteine-reactive fluorescent probe labeling of pure human CTNNB1 protein”. The “CTNNB1 HiBiT levels” value in experiment [4] is listed as “dose-responsive CTNNB1 loss that was significantly attenuated by proteasome or NEDDylation inhibition”. In addition, the “number of other targets significantly engaged by over 50%” value in experiment [5] (among 8251 cysteines detected and quantified, three biological replicates) is reported as 139. Also, in experiment [5] (isoDTB-ABPP in cells), the proteome-wide selectivity result is on record as “only moderately selective”. Besides, in experiment [5] (isoDTB-ABPP, three biological replicates), the “engagement of CTNNB1 cysteine in cells” value is “significantly engaged C619 on CTNNB1”.

Regarding `CCC(=O)N1CCCC1c1cc(OC)ccc1OC` (stereo not drawn) [NF602, 1-(2-(2,5-dimethoxyphenyl)pyrrolidin-1-yl)propan-1-one], the “binding to CTNNB1 by gel-based ABPP” value in experiment [3] was “does not show binding to CTNNB1”. The “CTNNB1 HiBiT levels” value in experiment [4] was “does not alter CTNNB1 levels”. Moreover, on CTNNB1 [6], the “CTNNB1 protein levels by Western blotting” value (“CTNNB1 protein levels” below) is given as “does not alter CTNNB1 levels”.

For `C#CCCCNC(=O)c1ccc(OC)c([C@@H]2CCCN2C(=O)CCl)c1` [NF686, (S)-3-(1-(2-chloroacetyl)pyrrolidin-2-yl)-4-methoxy-N-(pent-4-yn-1-yl)benzamide], the “direct probe labeling of pure CTNNB1 protein” value at CTNNB1 pure protein is “direct covalent dose-responsive probe labeling of pure CTNNB1 protein”. At CTNNB1 [7], the “enrichment of CTNNB1 from cells with alkyne probe” value was “CTNNB1 could be enriched from cells with the probes without enriching unrelated targets such as GAPDH”.

With `COc1ccc(C(F)(F)F)cc1C1CCCN1C(=O)CCl` (stereo not drawn) [NF740, 2-chloro-1-(2-(2-methoxy-5-(trifluoromethyl)phenyl)pyrrolidin-1-yl)ethan-1-one], in experiment [3], the “binding to CTNNB1 by gel-based ABPP” value is “tolerated”. Besides, the “CTNNB1 HiBiT levels” value in experiment [4] is reported as “lowering CTNNB1 HiBiT levels in HEK293 cells in a dose-responsive manner”. The “CTNNB1 protein levels” value on CTNNB1 [6] is “confirmed to be proteasome-dependent”.

Regarding `COc1ccc(C(F)(F)F)c(C2CCCN2C(=O)CCl)c1` (stereo not drawn) [NF741, 2-chloro-1-(2-(5-methoxy-2-(trifluoromethyl)phenyl)pyrrolidin-1-yl)ethan-1-one], in experiment [3], the “binding to CTNNB1 by gel-based ABPP” value is given as “tolerated”. Further, the “CTNNB1 HiBiT levels” value in experiment [4] is recorded as “lowering CTNNB1 HiBiT levels in HEK293 cells in a dose-responsive manner”. Moreover, the “CTNNB1 protein levels” value at CTNNB1 [6] is on record as “confirmed to be proteasome-dependent”.

Regarding `COc1ccc(C(F)(F)F)c(C2CCCN2C(=O)/C=C/C(=O)c2ccccc2)c1` (stereo not drawn) [NF764, (E)-1-(2-(5-methoxy-2-(trifluoromethyl)phenyl)pyrrolidin-1-yl)-4-phenylbut-2-ene-1,4-dione], the “binding to CTNNB1 by gel-based ABPP” value in experiment [3] is “improved CTNNB1 binding”. Moreover, the “CTNNB1 HiBiT levels” value in experiment [4] was “more potent loss of CTNNB1 HiBiT levels”. The “CTNNB1 protein levels” value at CTNNB1 [6] is given as “lowered CTNNB1 protein levels in cells in a proteasome-dependent manner”.

On to `COc1ccc(C(F)(F)F)cc1C1CCCN1C(=O)/C=C/C(=O)c1ccccc1` (stereo not drawn) [NF765, (E)-1-(2-(2-methoxy-5-(trifluoromethyl)phenyl)pyrrolidin-1-yl)-4-phenylbut-2-ene-1,4-dione], for which, in experiment [3], the “binding to CTNNB1 by gel-based ABPP” value is given as “improved CTNNB1 binding”. In addition, the “CTNNB1 HiBiT levels” value in experiment [4] is “more potent loss of CTNNB1 HiBiT levels”. Further, on CTNNB1 [6], the “CTNNB1 protein levels” value is recorded as “lowered CTNNB1 protein levels in cells in a proteasome-dependent manner”.
